According to patent US6737383B1, “Herbicidal oxadiazolidines” (priority 1999, dated 2004):

Legend:
smallflower flatsedge = assay: Test B flood test smallflower flatsedge; type: in vivo, Cyperus difformis
How it was run: (§1)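 Flood test on plants grown to the 2-leaf stage; treated plants kept in greenhouse twelve to sixteen days, then visually rated against controls on a 0 (no effect) to 10 (complete control) scale.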

winter wheat [1] = assay: Test E winter wheat; type: in vivo, Triticum aestivum; details: Postemergence
How it was run: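 Each compound, carried in a non-phytotoxic solvent blend including surfactant, was applied (postemergence: over the top of young plants at 1- to 4-leaf stage). Plants stayed in the greenhouse about 21 to 28 days before visual comparison with untreated controls.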

bamyardgrass = assay: Test B flood test barnyardgrass; type: in vivo, Echinochloa crus-galli
How it was run: as §1

winter barley = assay: Test E winter barley; type: in vivo, Hordeum vulgare; details: Preemergence
Johnson grass = assay: Test D Johnson grass; type: in vivo, Sorghum halepense; details: Preemergence, 0 to 100 scale
How it was run: (§2)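 Each weed species is planted in its own pot or compartment; preemergence doses go on the sandy loam surface within a day. The formulation is a surfactant-containing, non-phytotoxic solvent blend. Ratings come from visual comparison with untreated controls 14 to 21 days later, where 100 means complete control.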

wild oat [2] = assay: Test B pre/postemergence wild oat; type: in vivo, Avena fatua; details: for Plant response rating, Wild oats: Rate 250 g/ha
How it was run: (§3)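 Test chemicals in a non-phytotoxic solvent mixture with surfactant were sprayed preemergence onto planted seeds and postemergence onto plants 2 to 18 cm tall (1- to 4-leaf stage). After twelve to sixteen days in a greenhouse, injury was visually rated against untreated controls from 0 (no effect) to 10 (complete control).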

wild oat [3] = assay: Test E wild oat; type: in vivo, Avena fatua; details: Preemergence
rice = assay: Test B flood test rice; type: in vivo, Oryza sativa
How it was run: as §1

Italian ryegrass = assay: Test E Italian ryegrass; type: in vivo, Lolium multiflorum; details: Preemergence
surinam grass = assay: Test D surinam grass; type: in vivo, Brachiaria decumbens; details: Preemergence, 0 to 100 scale
How it was run: as §2

blackgrass [4] = assay: Test E blackgrass; type: in vivo, Alopecurus myosuroides; details: Preemergence
winter wheat [5] = assay: Test E winter wheat; type: in vivo, Triticum aestivum; details: Preemergence
blackgrass [6] = assay: Test B pre/postemergence blackgrass; type: in vivo, Alopecurus myosuroides
How it was run: as §3

Alexandergrass = assay: Test D Alexandergrass; type: in vivo, Brachiaria plantaginea; details: Preemergence, 0 to 100 scale
How it was run: as §2

green foxtail = assay: Test E green foxtail; type: in vivo, Setaria viridis; details: Preemergence
tall mallow = assay: Test D tall mallow; type: in vivo, Malva sylvestris; details: Preemergence, 0 to 100 scale
How it was run: as §2

[7] = Postemergence (flood test species), Rate 125 g/ha, scale of 0 to 10 where 0 is no effect and 10 is complete control
[8] = Rate 62 g/ha, Postemergence section, flood test species, scale of 0 to 10 where 0 is no effect and 10 is complete control
[9] = Rate 250 g/ha, Postemergence (flood test), scale 0 to 10, 0 is no effect, 10 is complete control
[10] = Rate 250 g/ha, headed Pre-emergence (flood test species), scale 0 to 10 (0 no effect, 10 complete control)
[11] = Rate 500 g/ha, headed Pre-emergence (flood test species), scale 0 to 10 (0 no effect, 10 complete control)
[12] = Rate 500 g/ha, listed under Postemergence (flood test species), scale 0 to 10, 0 no effect, 10 complete control
[13] = Rate 2000 g/ha, Pre-emergence (as headed), scale 0 to 10
[14] = Rate 1000 g/ha, Pre-emergence (as headed), scale 0 to 10
[15] = Rate 125 g/ha, 0 to 100 scale (0 no effect, 100 complete control)
[16] = Rate 500 g/ha, 0 to 100 scale where 0 is no effect and 100 is complete control
[17] = Rate 16 g/ha, 0 no injury, 100 complete control
[18] = Rate 32 g/ha, 0 no injury, 100 complete control
[19] = Rate 64 g/ha, 0 no injury, 100 complete control
[20] = Rate 125 g/ha, 0 no injury, 100 complete control
[21] = Postemergence, Rate 125 g/ha, scale of 0 to 10 where 0 is no effect and 10 is complete control
[22] = Preemergence, Rate 62 g/ha, scale 0 to 10 (0 no effect, 10 complete control)
[23] = Preemergence, Rate 500 g/ha, scale 0 to 10 (0 no effect, 10 complete control)
[24] = Rate 62 g/ha, Postemergence, scale of 0 to 10 where 0 is no effect and 10 is complete control
[25] = Rate 500 g/ha, Postemergence, scale 0 to 10, 0 no effect, 10 complete control

C=CCn1c(=O)on(C(=O)N(c2ccc(Cl)cc2)C(C)C)c1=O [Compound 105]
2: Wild oats plant response rating (wild oat [2]; [22]) | Plant response rating, Wild oats (wild oat [2]; Postemergence, scale 0 to 10, 0 is no effect, 10 is complete control) | Blackgrass plant response rating (blackgrass [6]; [24])
4: Wild oats plant response rating (wild oat [2]; [25])
98: Plant response rating, Surinam grass (surinam grass; Rate 250 g/ha) | Plant response rating, Alexandergrass (Alexandergrass; [20]) | Plant response rating, Alexandergrass (Alexandergrass; Rate 250 g/ha)
55: Plant response rating, Wild oat (wild oat [3]; [16]) | Plant response rating, Green foxtail (green foxtail; [15])
85: Plant response rating, I. Ryegrass (Italian ryegrass; [16]) | Plant response rating, Alexandergrass (Alexandergrass; [19])
30: Plant response rating, Wild oat (wild oat [3]; [15]) | Plant response rating, I. Ryegrass (Italian ryegrass; [15]) | Plant response rating, I. Ryegrass (Italian ryegrass; Rate 250 g/ha, 0 to 100 scale) | Plant response rating, Alexandergrass (Alexandergrass; [18])
100: Plant response rating, Surinam grass (surinam grass; Rate 500 g/ha) | Plant response rating, Alexandergrass (Alexandergrass; Rate 500 g/ha) | Plant response rating, Green foxtail (green foxtail; [16])
6: Blackgrass plant response rating (blackgrass [6]; [21])
50: Plant response rating, Blackgrass (blackgrass [4]; Rate 250 g/ha, 0 to 100 scale) | Plant response rating, Blackgrass (blackgrass [4]; [16])
75: Plant response rating Johnsongrass (Johnson grass; Rate 250 g/ha) | Plant response rating, Tall Mallow (tall mallow; Rate 250 g/ha) | Plant response rating, Tall Mallow (tall mallow; Rate 500 g/ha)
0: S. Flatsedge plant response rating (smallflower flatsedge; [7]) | S. Flatsedge plant response rating (smallflower flatsedge; Pre-emergence, Rate 1000 g/ha, scale 0 to 10 (0 no effect, 10 complete control)) | S. Flatsedge plant response rating (smallflower flatsedge; [8]) | Plant response rating, S. Flatsedge (smallflower flatsedge; [9]) | S. Flatsedge plant response rating (smallflower flatsedge; [10]) | Plant response rating, S. Flatsedge (smallflower flatsedge; [11]) | S. Flatsedge plant response rating (smallflower flatsedge; [12]) | S. Flatsedge plant response rating (smallflower flatsedge; [13]) | Barnyardgrass plant response rating (bamyardgrass; Postemergence, Rate 62 g/ha, scale 0 to 10, 0 is no effect, 10 is complete control) | Barnyardgrass plant response rating (bamyardgrass; Rate 125 g/ha, Postemergence section (flood test species), scale 0 to 10, 0 no effect, 10 complete control) | Barnyardgrass plant response rating (bamyardgrass; [10]) | Plant response rating, Barnyardgrass (bamyardgrass; [11]) | Barnyardgrass plant response rating (bamyardgrass; [12]) | Barnyardgrass plant response rating (bamyardgrass; [14]) | Barnyardgrass plant response rating (bamyardgrass; Rate 2000 g/ha, Pre-emergence (as headed), scale 0 to 10, 0 no effect, 10 complete control) | Barnyardgrass plant response rating (bamyardgrass; flood test, listed under Postemergence, Rate 250 g/ha, scale 0 to 10, 0 no effect, 10 complete control) | Plant response rating, Barley (winter) (winter barley; [15]) | Plant response rating, Barley (winter) (winter barley; Rate 250 g/ha, 0 to 100 scale) | Plant response rating Johnsongrass (Johnson grass; [17]) | Plant response rating Johnsongrass (Johnson grass; [18]) | Plant response rating Johnsongrass (Johnson grass; [19]) | Wild oats plant response rating (wild oat [2]; [21]) | Wild oats plant response rating (wild oat [2]; [24]) | Rice plant response rating (rice; [7]) | Rice plant response rating (rice; [8]) | Plant response rating, Rice (rice; [9]) | Rice plant response rating (rice; [10]) | Plant response rating, Rice (rice; [11]) | Rice plant response rating (rice; [12]) | Rice plant response rating (rice; [14]) | Rice plant response rating (rice; [13]) | Plant response rating, Surinam grass (surinam grass; [17]) | Plant response rating, Surinam grass (surinam grass; [18]) | Surinam grass plant response rating (surinam grass; [19]) | Plant response rating, Wheat (winter) (winter wheat [5]; Rate 250 g/ha, 0 to 100 scale) | Plant response rating, Alexandergrass (Alexandergrass; [17]) | Plant response rating, Tall Mallow (tall mallow; [17]) | Plant response rating, Tall Mallow (tall mallow; [18]) | Tall Mallow plant response rating (tall mallow; [19])
10: Plant response rating, Wheat (winter) (winter wheat [1]; Rate 125 g/ha, 0 to 100 scale) | Plant response rating, Wheat (winter) (winter wheat [1]; Rate 250 g/ha, 0 to 100 scale (0 no effect, 100 complete control)) | Plant response rating, Barley (winter) (winter barley; [16]) | Plant response rating, Wheat (winter) (winter wheat [5]; [15]) | Plant response rating, Wheat (winter) (winter wheat [5]; [16]) | Blackgrass plant response rating (blackgrass [6]; [23])
20: Plant response rating, Wheat (winter) (winter wheat [1]; Rate 500 g/ha, 0 to 100 scale, 0 no effect, 100 complete control) | Plant response rating Johnsongrass (Johnson grass; [20]) | Plant response rating, Blackgrass (blackgrass [4]; [15])
8: Plant response rating, Blackgrass (blackgrass [6]; Preemergence, Rate 250 g/ha, scale of 0 to 10 where 0 is no effect and 10 is complete control) | Blackgrass plant response rating (blackgrass [6]; [25])
40: Surinam grass plant response rating (surinam grass; [20]) | Plant response rating, Tall Mallow (tall mallow; [20])
3: Wild oats plant response rating (0 to 10 scale) (wild oat [2]; Preemergence, Rate 125 g/ha, 0 is no effect, 10 is complete control) | Plant response rating, Wild oats (wild oat [2]; Preemergence, scale of 0 to 10 where 0 is no effect and 10 is complete control)
5: Blackgrass plant response rating (blackgrass [6]; [22])
45: Tall Mallow plant response rating (tall mallow; [20])
90: Plant response rating Johnsongrass (Johnson grass; Rate 500 g/ha) | Plant response rating, Green foxtail (green foxtail; Rate 250 g/ha, 0 to 100 scale)
9: Wild oats plant response rating (wild oat [2]; [23])
7: Blackgrass plant response rating (blackgrass [6]; Postemergence, Rate 250 g/ha, scale 0 to 10, 0 no effect, 10 complete control) | Plant response rating, Blackgrass (blackgrass [6]; Preemergence, Rate 125 g/ha, scale 0 to 10 (0 no effect, 10 complete control))
